# In publication PMC11365967 (Nature Communications, 2024):
# Target: T1, CCR6 (Homo sapiens, UniProt P51684)
# T1 sequence (P51684 1-374): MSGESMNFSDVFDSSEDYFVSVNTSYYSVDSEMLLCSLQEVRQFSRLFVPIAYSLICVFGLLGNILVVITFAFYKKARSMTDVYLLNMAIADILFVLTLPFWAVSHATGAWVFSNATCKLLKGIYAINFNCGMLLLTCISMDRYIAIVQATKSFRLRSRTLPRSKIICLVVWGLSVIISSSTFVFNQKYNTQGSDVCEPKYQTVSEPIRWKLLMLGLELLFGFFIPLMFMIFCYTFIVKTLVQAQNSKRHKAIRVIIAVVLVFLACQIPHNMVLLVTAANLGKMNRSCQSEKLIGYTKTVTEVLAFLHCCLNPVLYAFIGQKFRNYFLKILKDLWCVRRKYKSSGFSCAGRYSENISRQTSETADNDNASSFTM
# Assay: CCL20-mediated CCR6+ human T cell chemotaxis assay
# Assay type: cell-based
Compound,activity on CCR6,"pEC50, CCL20-induced CCR6+ human T cell chemotaxis (mean ± s.d., n = 5)","EC50 (read-out: EC50, CCL20-induced CCR6+ human T cell chemotaxis, n = 5)"
CC(C)(C(=O)NCC1CN(C2Cc3ccccc3C2)C(=O)CO1)c1ccc(Cl)cc1 (stereo not shown) [OXM3],neither OXM3 nor OXM4 are active,–,–
O=C1COC(CNC(=O)C2(c3ccccc3)CC2)CN1C1Cc2ccccc2C1 (stereo not shown) [OXM4],neither OXM3 nor OXM4 are active,–,–
CCL20: cognate chemokine ligand (agonist) of CCR6 (Peprotech),–,9.7 ± 0.9,0.19 nM
